Structures are written as SMILES.

Experimental findings from publication PMC5342759, “An inhibitor of cholesterol absorption displays anti-myeloma activity by targeting the JAK2-STAT3 signaling pathway” (Oncotarget, 2016) are described below.

Holding throughout (experiment): HotSpot radiometric kinase assay, purified recombinant human kinase, 10-dose IC50
Format in all cases: biochemical

Assay [1] concerns the target JAK2 (Homo sapiens, UniProt O60674).
Assay [2] concerns the target TYK2 (Homo sapiens, UniProt P29597).
Assay [3] addresses T1, JAK3 (Homo sapiens, UniProt P52333).
T1 sequence (P52333 1-1124): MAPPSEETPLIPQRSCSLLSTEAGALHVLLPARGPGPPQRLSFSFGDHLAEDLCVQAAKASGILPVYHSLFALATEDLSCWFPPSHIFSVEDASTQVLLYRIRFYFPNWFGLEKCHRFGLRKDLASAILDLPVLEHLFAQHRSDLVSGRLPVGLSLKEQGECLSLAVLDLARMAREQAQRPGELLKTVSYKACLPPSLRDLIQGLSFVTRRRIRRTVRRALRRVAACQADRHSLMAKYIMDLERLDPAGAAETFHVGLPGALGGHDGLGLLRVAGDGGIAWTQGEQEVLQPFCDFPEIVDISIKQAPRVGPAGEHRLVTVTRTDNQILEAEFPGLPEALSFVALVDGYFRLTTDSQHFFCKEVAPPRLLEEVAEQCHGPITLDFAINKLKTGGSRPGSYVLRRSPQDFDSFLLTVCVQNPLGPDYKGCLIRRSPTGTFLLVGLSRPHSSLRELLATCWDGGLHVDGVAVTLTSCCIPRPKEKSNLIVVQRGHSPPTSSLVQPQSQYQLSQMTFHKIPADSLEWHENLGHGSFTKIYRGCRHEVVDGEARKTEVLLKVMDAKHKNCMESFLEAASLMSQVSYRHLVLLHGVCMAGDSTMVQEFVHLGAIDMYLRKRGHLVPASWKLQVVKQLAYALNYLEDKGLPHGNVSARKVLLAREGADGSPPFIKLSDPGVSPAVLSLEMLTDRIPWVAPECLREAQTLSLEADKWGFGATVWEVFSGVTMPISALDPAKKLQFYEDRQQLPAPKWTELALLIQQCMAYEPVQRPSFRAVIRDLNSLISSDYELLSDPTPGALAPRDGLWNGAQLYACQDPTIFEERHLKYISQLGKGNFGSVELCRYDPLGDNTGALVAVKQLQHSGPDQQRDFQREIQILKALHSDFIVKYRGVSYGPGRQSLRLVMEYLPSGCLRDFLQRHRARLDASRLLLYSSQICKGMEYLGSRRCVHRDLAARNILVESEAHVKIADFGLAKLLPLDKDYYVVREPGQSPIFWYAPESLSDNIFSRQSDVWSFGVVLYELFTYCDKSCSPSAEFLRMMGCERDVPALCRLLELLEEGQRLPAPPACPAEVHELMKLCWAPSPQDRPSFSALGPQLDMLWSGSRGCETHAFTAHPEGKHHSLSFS

In assay [4] the target is JAK1 (Homo sapiens, UniProt P23458).
JAK1, sequence (P23458 whole entry): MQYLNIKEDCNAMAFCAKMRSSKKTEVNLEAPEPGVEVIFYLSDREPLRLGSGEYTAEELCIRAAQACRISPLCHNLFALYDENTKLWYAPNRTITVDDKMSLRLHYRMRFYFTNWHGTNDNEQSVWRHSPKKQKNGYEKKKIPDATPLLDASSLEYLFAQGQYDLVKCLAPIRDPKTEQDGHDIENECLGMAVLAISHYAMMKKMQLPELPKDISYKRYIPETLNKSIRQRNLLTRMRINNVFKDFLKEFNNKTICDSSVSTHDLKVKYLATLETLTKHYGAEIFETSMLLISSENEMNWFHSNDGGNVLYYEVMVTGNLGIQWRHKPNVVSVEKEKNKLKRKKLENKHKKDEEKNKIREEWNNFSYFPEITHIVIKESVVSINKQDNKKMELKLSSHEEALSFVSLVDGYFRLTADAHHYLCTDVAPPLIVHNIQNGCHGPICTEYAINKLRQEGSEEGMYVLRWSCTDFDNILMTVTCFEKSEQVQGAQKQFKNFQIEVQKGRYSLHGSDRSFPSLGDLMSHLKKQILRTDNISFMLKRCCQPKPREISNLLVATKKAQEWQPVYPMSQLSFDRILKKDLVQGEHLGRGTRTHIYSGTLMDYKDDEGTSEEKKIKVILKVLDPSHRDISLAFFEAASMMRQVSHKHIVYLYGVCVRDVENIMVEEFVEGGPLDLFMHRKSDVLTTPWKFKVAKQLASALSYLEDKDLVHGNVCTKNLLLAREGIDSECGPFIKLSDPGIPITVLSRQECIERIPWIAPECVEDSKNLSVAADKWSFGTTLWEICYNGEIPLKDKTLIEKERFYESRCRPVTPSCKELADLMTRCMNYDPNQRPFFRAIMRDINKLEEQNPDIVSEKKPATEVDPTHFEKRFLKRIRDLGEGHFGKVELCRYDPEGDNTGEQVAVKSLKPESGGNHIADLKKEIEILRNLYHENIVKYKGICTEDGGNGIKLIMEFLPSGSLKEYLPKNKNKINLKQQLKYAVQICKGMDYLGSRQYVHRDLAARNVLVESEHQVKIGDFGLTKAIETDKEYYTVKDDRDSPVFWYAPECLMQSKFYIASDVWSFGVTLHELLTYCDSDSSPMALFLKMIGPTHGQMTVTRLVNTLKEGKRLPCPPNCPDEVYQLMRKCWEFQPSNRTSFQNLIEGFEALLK

JAK2, sequence (O60674 whole entry): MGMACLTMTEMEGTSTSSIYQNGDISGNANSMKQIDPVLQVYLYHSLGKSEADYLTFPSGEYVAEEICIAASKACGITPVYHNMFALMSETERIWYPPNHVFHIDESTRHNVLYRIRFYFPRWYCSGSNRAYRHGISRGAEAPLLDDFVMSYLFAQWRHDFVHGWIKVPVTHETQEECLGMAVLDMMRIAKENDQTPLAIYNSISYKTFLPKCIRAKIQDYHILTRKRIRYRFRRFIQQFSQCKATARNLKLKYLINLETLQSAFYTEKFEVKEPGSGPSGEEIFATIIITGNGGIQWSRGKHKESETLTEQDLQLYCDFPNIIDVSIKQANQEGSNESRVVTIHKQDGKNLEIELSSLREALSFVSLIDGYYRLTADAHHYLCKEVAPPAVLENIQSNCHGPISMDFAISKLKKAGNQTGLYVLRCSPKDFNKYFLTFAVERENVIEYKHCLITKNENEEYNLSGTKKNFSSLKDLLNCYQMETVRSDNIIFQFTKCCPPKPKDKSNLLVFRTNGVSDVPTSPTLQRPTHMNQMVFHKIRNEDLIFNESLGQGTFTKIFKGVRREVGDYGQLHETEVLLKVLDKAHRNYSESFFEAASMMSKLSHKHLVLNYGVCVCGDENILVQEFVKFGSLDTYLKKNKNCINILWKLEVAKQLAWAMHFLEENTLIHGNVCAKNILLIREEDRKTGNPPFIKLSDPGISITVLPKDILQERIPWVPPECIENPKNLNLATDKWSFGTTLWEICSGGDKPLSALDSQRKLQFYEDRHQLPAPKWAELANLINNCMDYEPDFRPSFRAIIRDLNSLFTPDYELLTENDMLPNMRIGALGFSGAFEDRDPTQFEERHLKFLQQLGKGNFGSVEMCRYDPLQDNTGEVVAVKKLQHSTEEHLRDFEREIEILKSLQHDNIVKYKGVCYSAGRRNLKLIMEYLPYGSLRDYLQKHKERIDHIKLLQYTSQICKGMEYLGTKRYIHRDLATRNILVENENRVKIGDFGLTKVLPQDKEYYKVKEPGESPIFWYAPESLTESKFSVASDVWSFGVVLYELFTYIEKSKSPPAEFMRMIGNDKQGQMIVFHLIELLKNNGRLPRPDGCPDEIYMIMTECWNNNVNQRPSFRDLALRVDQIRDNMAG
TYK2, sequence (P29597 whole entry): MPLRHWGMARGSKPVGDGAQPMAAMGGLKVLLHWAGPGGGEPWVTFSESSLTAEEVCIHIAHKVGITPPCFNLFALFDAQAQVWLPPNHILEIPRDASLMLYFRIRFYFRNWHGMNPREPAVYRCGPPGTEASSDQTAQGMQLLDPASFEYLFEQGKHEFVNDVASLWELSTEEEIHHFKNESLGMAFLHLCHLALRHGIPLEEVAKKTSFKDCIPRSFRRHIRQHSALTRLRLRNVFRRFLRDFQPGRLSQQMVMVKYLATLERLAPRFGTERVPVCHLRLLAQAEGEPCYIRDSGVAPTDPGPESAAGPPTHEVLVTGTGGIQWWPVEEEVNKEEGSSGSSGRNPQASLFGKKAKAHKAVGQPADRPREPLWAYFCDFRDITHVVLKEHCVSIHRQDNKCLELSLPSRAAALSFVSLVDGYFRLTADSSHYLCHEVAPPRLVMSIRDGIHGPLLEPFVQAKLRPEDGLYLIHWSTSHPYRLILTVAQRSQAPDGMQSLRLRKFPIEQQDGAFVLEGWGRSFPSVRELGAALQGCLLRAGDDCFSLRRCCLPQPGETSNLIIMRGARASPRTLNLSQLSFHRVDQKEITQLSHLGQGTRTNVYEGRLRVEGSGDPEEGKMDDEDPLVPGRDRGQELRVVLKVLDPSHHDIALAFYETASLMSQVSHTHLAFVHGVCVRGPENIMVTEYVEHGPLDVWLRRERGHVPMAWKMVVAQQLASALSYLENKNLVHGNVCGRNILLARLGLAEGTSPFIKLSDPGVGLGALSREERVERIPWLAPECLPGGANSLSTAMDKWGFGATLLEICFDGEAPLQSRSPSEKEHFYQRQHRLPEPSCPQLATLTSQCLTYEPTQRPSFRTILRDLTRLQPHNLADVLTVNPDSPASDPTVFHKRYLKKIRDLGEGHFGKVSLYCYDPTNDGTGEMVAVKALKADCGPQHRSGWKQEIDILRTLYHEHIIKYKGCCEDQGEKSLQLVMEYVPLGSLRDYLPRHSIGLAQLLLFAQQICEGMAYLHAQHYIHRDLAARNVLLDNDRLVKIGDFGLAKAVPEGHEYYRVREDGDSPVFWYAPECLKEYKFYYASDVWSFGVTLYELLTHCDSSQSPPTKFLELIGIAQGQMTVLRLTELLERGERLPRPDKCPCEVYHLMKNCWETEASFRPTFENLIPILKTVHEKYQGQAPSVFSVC

`N#C/C(=N\Nc1ccc(C(F)(F)F)cc1)S(=O)(=O)c1cccs1` [SC09]: the IC50 amounted to 8.88 µM in assay [1], 111 µM in assay [2], 139 µM in assay [3] and 153 µM in assay [4].

As a reminder, the IC50 is the concentration at which inhibition is half-maximal.
